Activity calls are given as the source filed them. No cut-off for these calls is given here. Starred links: 1 amine or outer side, 2 acyl side, 3 side chain; linkers in the order of their positions; H or OH if unused. Positions of bridges follow the written chain, without caps; N, C: chain ends. Non-standard residues stand in square brackets, D forms with d. Residues, ends and D or L forms follow the SMILES beside them. ξ: configuration not given here. mXylylene = c1cc(C[*:1])cc(C[*:2])c1; ξhCys = NC(CCS)C(=O)O

The subject of data set [1] is Human immunodeficiency virus 1. Nature of the data set: Antiviral activity against X4 tropic HIV-1 subtype-B 3B infected in human MT2 cells or CEMx174 5.25 M7 cells assessed as reduction in p24 Gag protein production at 6:1 ratio of hCS6ERE to compound measured at 4 days post-infection by ELISA. The data set is classed as functional, cell-based, HIV-1 group M. The note with it: Human immunodeficiency virus 1, 3B, 96 h. In general terms: In an ELISA, binding on a coated surface is turned into a signal by an enzyme label.

For data set [2], the system named is Human immunodeficiency virus 1. Nature of the data set: Antiviral activity against R5 tropic HIV-1 subtype-B Bal infected in human MT2 cells or CEMx174 5.25 M7 cells assessed as reduction in p24 Gag protein production at 6:1 ratio of hCS6ERE to compound measured at 4 days post-infection by ELISA. Type of data set: functional, cell-based, HIV-1 group M. The settings on record: Human immunodeficiency virus 1, Bal, 96 h.

In data set [3] the test system is Human immunodeficiency virus 1. In words: Ratio of EC50 for antiviral activity against R5 tropic HIV-1 subtype-B Bal infected in human MT2 cells or CEMx174 5.25 M7 cells in absence of hCS6ERE to EC50 for antiviral activity against R5 tropic HIV-1 subtype-B Bal infected in human MT2 cells or CEMx174 5.25 M7 cells at 12:1 ratio of hCS6ERE to compound. Type of data set: functional, HIV-1 group M.

Data set [4] concerns Human immunodeficiency virus 1. Nature of the data set: Antiviral activity against HIV1 NL4-3 infected in human MT2 cells or CEMx174 5.25 M7 cells assessed as reduction in p24 Gag protein production at 20:1 hCS6ERE to compound ratio measured at 4 days post-infection by ELISA. Type of data set: functional, organism-based. The note with it: Human immunodeficiency virus 1, NL4-3, 96 h.

Data set [5] deals with Human immunodeficiency virus 1. In words: Ratio of EC50 for antiviral activity against HIV1 NL4-3 infected in human MT2 cells or CEMx174 5.25 M7 cells in absence of hCS6ERE to EC50 for antiviral activity against HIV1 NL4-3 infected in human MT2 cells or CEMx174 5.25 M7 cells at 10:1 hCS6ERE to compound ratio. The data set is classed as functional.
The subject of data set [6] is Human immunodeficiency virus 1. In words: Antiviral activity against T20 resistant HIV1 NL4-3 harboring with V38E/N42T mutant infected in human MT2 cells or CEMx174 5.25 M7 cells assessed as reduction in p24 Gag protein production at 600:1 hCS6ERE to compound ratio measured at 4 days post-infection by ELISA. Type of data set: functional, organism-based.
Data set [7] concerns Human immunodeficiency virus 1. Nature of the data set: Ratio of EC50 for antiviral activity against T20 resistant HIV1 NL4-3 harboring with V38E/N42T mutant infected in human MT2 cells or CEMx174 5.25 M7 cells in absence of hCS6ERE to EC50 for Antiviral activity against T20 resistant HIV1 NL4-3 harboring with V38E/N42T mutant infected in human MT2 cells or CEMx174 5.25 M7 cells at 300:1 hCS6ERE to compound ratio. The data set is classed as functional.

For data set [8], the system named is Human immunodeficiency virus 1. In words: Antiviral activity against T2635 resistant HIV1 LAI harboring Q66R mutant infected in human MT2 cells or CEMx174 5.25 M7 cells assessed as reduction in p24 Gag protein production at 25:1 ratio of hCS6ERE to compound measured at 4 days post infection by ELISA. Type of data set: functional, organism-based, M:B_Lai.
The target in data set [9] is Envelope glycoprotein gp160 (Human immunodeficiency virus 1) (UniProt Q6QLK5). In words: Binding affinity to HIV1 GP41 using GP41 NHR derived N36 peptide at 500 uM incubated for 30 mins by size exclusion HPLC analysis.
Chain of Envelope glycoprotein gp160 (Human immunodeficiency virus 1) (Q6QLK5 1-814): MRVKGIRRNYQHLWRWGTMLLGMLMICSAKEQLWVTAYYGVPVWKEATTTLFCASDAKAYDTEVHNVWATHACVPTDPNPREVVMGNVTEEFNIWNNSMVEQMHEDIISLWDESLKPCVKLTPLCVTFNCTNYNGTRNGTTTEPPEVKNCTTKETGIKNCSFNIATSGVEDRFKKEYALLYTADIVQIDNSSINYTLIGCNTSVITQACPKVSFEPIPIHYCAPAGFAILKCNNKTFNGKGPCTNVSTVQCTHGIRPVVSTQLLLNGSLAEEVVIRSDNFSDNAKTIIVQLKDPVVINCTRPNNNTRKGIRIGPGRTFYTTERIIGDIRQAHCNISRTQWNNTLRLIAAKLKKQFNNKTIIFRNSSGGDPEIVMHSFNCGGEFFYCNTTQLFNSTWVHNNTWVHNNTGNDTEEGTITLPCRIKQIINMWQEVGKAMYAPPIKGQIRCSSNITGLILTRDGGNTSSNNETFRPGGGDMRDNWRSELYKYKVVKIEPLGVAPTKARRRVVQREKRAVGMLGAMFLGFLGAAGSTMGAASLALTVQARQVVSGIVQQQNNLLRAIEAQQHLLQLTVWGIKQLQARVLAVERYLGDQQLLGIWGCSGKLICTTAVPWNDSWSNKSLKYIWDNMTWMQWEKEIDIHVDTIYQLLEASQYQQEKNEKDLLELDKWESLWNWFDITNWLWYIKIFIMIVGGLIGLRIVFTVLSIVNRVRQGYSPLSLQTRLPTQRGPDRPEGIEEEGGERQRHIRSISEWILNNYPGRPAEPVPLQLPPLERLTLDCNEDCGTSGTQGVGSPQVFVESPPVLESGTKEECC
Data set [10] has the same target. In words: Ratio of EC50 for inhibition of HIV1 gp41-induced cell-cell fusion between viral envelope expressing human HL2/3 cells to CD4/CCR5 receptor expressing TZM-bl cells in absence of HP23 to EC50 for inhibition of HIV1 gp41-induced cell-cell fusion between viral envelope expressing human HL2/3 cells to CD4/CCR5 receptor expressing TZM-bl cells at 1:1 compound to HP23 ratio.

Data set [11] deals with Human immunodeficiency virus 1. Nature of the data set: Antiviral activity against X4 tropic HIV-1 subtype-B 3B infected in human MT2 cells or CEMx174 5.25 M7 cells assessed as reduction in p24 Gag protein production at 12:1 compound to HP23 ratio measured at 4 days post-infection by ELISA. Type of data set: functional, cell-based, HIV-1 group M. The settings on record: Human immunodeficiency virus 1, 3B, 96 h.

For data set [12], the system named is Human immunodeficiency virus 1. Nature of the data set: Synergistic antiviral activity against R5 tropic HIV-1 subtype-B Bal infected in human MT2 cells or CEMx174 5.25 M7 cells assessed as reduction in p24 Gag protein production by measuring combination index at 3:1 ratio of hCS6ERE to compound measured at 4 days post-infection by ELISA. The data set is classed as functional, HIV-1 group M.

Data set [13] concerns Human immunodeficiency virus 1. In words: Synergistic antiviral activity against T20 resistant HIV1 NL4-3 harboring with V38E/N42S mutant infected in human MT2 cells or CEMx174 5.25 M7 cells assessed as reduction in p24 Gag protein production by measuring combination index at 3500:1 compound to HP23 ratio measured at 4 days post-infection by ELISA. The data set is classed as functional.

Data set [14] has as its system Human immunodeficiency virus 1. Nature of the data set: Ratio of EC50 for antiviral activity against T20 resistant HIV1 NL4-3 harboring with V38E/N42S mutant infected in human MT2 cells or CEMx174 5.25 M7 cells in absence of HP23 to EC50 for antiviral activity against T20 resistant HIV1 NL4-3 harboring with V38E/N42S mutant infected in human MT2 cells or CEMx174 5.25 M7 cells at 14000:1 compound to HP23 ratio. The data set is classed as functional.

In data set [15] the test system is Human immunodeficiency virus 1. In words: Synergistic antiviral activity against T20 resistant HIV1 NL4-3 harboring with V38E/N42T mutant infected in human MT2 cells or CEMx174 5.25 M7 cells assessed as reduction in p24 Gag protein production by measuring combination index at 300:1 compound to HP23 ratio measured at 4 days post-infection by ELISA. The data set is classed as functional.

Data set [16] relates to Human immunodeficiency virus 1. Nature of the data set: Antiviral activity against T20 resistant HIV1 NL4-3 harboring with V38E/N42T mutant infected in human MT2 cells or CEMx174 5.25 M7 cells assessed as reduction in p24 Gag protein production at 150:1 compound to HP23 ratio measured at 4 days post-infection by ELISA. The data set is classed as functional, organism-based.

Data set [17] relates to Human immunodeficiency virus 1. Nature of the data set: Antiviral activity against T2635 resistant HIV1 LAI harboring Q66R mutant infected in human MT2 cells or CEMx174 5.25 M7 cells assessed as reduction in p24 Gag protein production at 50:1 ratio of compound to HP23 measured at 4 days post infection by ELISA. Type of data set: functional, organism-based, M:B_Lai.
The subject of data set [18] is Human immunodeficiency virus 1. Nature of the data set: Ratio of EC50 for antiviral activity against T2635 resistant HIV1 LAI harboring Q66R mutant infected in human MT2 cells or CEMx174 5.25 M7 cells in absence of HP23 to antiviral activity against T2635 resistant HIV1 LAI harboring Q66R mutant infected in human MT2 cells or CEMx174 5.25 M7 cells at 50:1 ratio of compound to HP23. Type of data set: functional, M:B_Lai.

Data set [19] can be described thus: Metabolic stability in rat plasma assessed as parent compound remaining at 3 to 100 uM after 4 hrs by RP-HPLC analysis. Type of data set: ADME, cell-free. The settings on record: read-out: Stability.
Data set [20] can be described thus: Metabolic stability in rat liver homogenates assessed as parent compound remaining at 3 to 100 uM after 2 hrs by RP-HPLC analysis. Type of data set: ADME, tissue-based. The settings on record: read-out: Stability.
Data set [21] is described as follows: Metabolic stability in rat kidney homogenates assessed as parent compound remaining at 3 to 100 uM after 4 hrs by RP-HPLC analysis. Type of data set: ADME, tissue-based. The settings on record: read-out: Stability.

By EC50 is commonly meant the concentration that produces a half-maximal response. For H-EMTWEEWEKKIEEYTKKIEEILK-OH, the EC50 in data set [1] was 1.3 nM; in data set [2] it was 1 nM; in [4] it was 0.7 nM; in data set [6], 0.8 nM; in [8], 1.5 nM. In addition, the “Ratio EC50” value stood at 2.6 in [3], 3.8 in [5] and 2.9 in [7].
Turning to `CC[C@H](C)[C@H](NC(C)=O)C(=O)N[C@@H](CCC(=O)O)C(=O)N[C@@H](CCC(=O)O)C(=O)N[C@@H](CC(C)C)C(=O)N[C@H](C(=O)NC1CCSCc2cccc(c2)CSCCC(C(=O)N[C@@H](CCC(N)=O)C(=O)N[C@@H](CCC(N)=O)C(=O)N[C@@H](CCCNC(=N)N)C(=O)N[C@@H](CCCCN)C(=O)N[C@@H](CC(N)=O)C(=O)N[C@@H](CCC(=O)O)C(=O)N[C@@H](CCC(=O)O)C(=O)N[C@@H](C)C(=O)N[C@@H](CC(C)C)C(=O)N[C@@H](CCCNC(=N)N)C(=O)N[C@@H](CCC(=O)O)C(=O)N[C@@H](CC(C)C)C(N)=O)NC(=O)[C@H](CCC(N)=O)NC(=O)[C@H](C)NC(=O)[C@H](C)NC1=O)[C@@H](C)CC` (stereo partly specified) (Ac-IEELI[ξhCys]AAQ[ξhCys]QQRKNEEALREL-NH2; linker 6-10 via mXylylene), in data set [9], the outcome was Active. Further, the figures for the Ratio EC50 in data set [10], in [14] and in data set [18] were 2, 2.2 and 3.3, respectively. Further, the EC50 in [11] came to 11.1 nM; in data set [16], 327 nM; in data set [17] it was 26.3 nM. In addition, the CI in [12] worked out at 0.8; in [13], 0.7; in data set [15], 0.8. Besides, the remaining at 4 h, up to 100 µM in data set [19] was determined as 100%. Also, the remaining at 2 h, up to 100 µM in [20] stood at 27.4%. For the same compound, the remaining at 4 h in data set [21] stood at 15.8%.

The values above are taken from ChEMBL document CHEMBL4334495, “Design and Biological Evaluation of m-Xylene Thioether-Stapled Short Helical Peptides Targeting the HIV-1 gp41 Hexameric Coiled-Coil Fusion Complex” (J Med Chem, 2019).
